# In ChEMBL document CHEMBL4665759, “Discovery of substituted 3H-pyrido[2,3-d]pyrimidin-4-ones as potent, biased, and orally bioavailable sst2 agonist” (Bioorg Med Chem Lett, 2020):
# Experiments:
# [1] = target: Somatostatin receptor type 1 (Homo sapiens, UniProt P30872); assay: Agonist activity at human SST1
# [2] = target: Somatostatin receptor type 5 (Homo sapiens, UniProt P35346); assay: Agonist activity at human SST5
# [3] = Half life in rat liver microsomes; assay type: ADME, Microsome
# Cytochrome P450 2C19 = Cytochrome P450 2C19 (Homo sapiens, UniProt P33261); assay: Inhibition of CYP2C19 (unknown origin); assay type: ADME
# Cytochrome P450 3A4 = Cytochrome P450 3A4 (Homo sapiens, UniProt P08684); assay: Inhibition of CYP3A4 (unknown origin); assay type: ADME
# [4] = AUC (0 to infinity) in Sprague-Dawley rat at 10 mg/kg, po; assay type: ADME, organism-based; parameters: time infinity, route oral, dose 10 mg/kg; conditions: in vivo
# [5] = Volume of distribution at steady state in Sprague-Dawley rat at 5 mg/kg, iv; assay type: ADME, organism-based; conditions: in vivo, read-out: Vdss
# [6] = Oral bioavailability in Sprague-Dawley rat at 10 mg/kg; assay type: ADME, organism-based; conditions: in vivo
# [7] = Observed clearance in Sprague-Dawley rat at 5 mg/kg, iv; assay type: ADME, organism-based; conditions: in vivo
# [8] = Half life in human liver microsomes; assay type: ADME, Microsome
# [9] = target: Voltage-gated inwardly rectifying potassium channel KCNH2 (Homo sapiens, UniProt Q12809); assay: Inhibition of human ERG
# Rattus norvegicus = assay: Suppression of growth hormone production in GHRH-challenged sc dosed Sprague-Dawley rat plasma administered GHRH at 1 to 8 hrs post dose and measured 5 mins after each GHRH challenge by sandwich ELISA; assay type: functional, organism-based; conditions: dose mg/kg 0.1-10, time hrs 1-8
# Cytochrome P450 2C9 = Cytochrome P450 2C9 (Homo sapiens, UniProt P11712); assay: Inhibition of CYP2C9 (unknown origin); assay type: ADME
# [10] = target: Somatostatin receptor type 3 (Homo sapiens, UniProt P32745); assay: Agonist activity at human SST3
# [11] = Half life in Sprague-Dawley rat at 5 mg/kg, iv; assay type: ADME, organism-based; conditions: in vivo
# [12] = Cmax in Sprague-Dawley rat at 10 mg/kg, po; assay type: ADME, organism-based; parameters: route oral, dose 10 mg/kg; conditions: in vivo
# Cytochrome P450 2C19, sequence (P33261 whole entry): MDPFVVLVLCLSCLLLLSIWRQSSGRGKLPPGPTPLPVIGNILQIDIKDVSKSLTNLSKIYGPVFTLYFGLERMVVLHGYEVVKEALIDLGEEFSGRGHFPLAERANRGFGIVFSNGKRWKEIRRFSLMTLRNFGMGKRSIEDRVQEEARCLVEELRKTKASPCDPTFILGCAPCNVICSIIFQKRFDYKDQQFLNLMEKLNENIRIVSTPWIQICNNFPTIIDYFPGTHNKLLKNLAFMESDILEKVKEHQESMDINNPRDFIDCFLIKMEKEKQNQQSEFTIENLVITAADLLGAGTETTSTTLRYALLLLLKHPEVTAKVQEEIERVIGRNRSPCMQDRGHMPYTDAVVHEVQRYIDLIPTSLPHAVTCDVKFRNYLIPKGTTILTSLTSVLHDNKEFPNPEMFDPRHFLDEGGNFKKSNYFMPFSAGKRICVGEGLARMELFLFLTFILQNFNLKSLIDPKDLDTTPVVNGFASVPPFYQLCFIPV
# Cytochrome P450 3A4, sequence (P08684 whole entry): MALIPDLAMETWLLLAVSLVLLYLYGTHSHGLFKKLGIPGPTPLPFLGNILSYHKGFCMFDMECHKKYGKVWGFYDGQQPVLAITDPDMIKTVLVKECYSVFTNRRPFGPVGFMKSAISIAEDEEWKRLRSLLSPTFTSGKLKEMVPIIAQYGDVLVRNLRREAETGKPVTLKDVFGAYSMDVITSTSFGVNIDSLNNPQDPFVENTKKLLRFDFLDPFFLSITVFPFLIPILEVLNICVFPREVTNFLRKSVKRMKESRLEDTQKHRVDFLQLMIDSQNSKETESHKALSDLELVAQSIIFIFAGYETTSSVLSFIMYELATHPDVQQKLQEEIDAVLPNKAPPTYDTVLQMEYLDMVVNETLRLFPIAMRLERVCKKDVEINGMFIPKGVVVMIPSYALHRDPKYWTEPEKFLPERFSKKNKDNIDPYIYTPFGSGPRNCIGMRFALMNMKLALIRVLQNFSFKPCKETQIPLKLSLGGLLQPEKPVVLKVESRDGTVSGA
# Voltage-gated inwardly rectifying potassium channel KCNH2, sequence (Q12809 whole entry): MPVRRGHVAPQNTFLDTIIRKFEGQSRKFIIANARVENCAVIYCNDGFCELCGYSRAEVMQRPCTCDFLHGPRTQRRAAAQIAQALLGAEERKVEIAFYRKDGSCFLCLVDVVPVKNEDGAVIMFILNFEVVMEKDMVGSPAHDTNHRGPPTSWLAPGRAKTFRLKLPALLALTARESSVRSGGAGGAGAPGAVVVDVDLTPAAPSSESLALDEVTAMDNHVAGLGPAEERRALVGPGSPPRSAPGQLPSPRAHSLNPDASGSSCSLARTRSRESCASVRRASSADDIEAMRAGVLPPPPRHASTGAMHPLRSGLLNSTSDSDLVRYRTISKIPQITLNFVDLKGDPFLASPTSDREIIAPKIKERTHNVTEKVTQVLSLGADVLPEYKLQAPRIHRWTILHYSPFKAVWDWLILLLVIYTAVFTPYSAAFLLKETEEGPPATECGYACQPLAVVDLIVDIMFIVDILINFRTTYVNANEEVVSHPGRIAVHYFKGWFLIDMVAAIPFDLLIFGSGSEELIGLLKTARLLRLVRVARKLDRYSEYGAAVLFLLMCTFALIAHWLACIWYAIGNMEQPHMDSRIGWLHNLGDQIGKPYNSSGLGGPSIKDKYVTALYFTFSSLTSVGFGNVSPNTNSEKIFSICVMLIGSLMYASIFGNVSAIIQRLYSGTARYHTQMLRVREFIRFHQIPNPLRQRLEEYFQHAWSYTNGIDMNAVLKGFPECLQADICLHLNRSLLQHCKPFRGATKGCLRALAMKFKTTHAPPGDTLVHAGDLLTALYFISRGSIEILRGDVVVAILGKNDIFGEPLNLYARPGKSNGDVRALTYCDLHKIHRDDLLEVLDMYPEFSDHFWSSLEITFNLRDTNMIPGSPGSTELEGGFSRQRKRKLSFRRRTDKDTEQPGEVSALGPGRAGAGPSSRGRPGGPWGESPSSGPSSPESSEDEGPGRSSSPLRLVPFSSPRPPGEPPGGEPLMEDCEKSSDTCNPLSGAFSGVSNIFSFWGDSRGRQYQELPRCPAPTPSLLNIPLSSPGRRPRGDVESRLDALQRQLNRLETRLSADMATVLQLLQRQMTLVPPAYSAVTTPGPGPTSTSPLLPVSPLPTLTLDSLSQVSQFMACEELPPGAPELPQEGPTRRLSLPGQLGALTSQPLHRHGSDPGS
# Cytochrome P450 2C9, sequence (P11712 whole entry): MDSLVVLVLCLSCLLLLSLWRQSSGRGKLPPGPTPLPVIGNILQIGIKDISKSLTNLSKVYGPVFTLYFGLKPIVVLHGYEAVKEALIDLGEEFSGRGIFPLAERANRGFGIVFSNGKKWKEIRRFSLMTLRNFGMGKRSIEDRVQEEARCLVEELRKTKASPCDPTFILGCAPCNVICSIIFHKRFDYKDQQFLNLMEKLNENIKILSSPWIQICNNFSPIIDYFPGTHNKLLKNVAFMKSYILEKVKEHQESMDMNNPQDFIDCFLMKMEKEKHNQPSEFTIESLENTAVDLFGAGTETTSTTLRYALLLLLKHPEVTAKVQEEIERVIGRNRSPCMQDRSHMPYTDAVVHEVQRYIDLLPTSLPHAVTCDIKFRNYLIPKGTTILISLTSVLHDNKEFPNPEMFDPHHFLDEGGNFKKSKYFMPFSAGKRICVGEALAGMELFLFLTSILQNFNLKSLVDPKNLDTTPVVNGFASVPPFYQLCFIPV
# Somatostatin receptor type 1, sequence (P30872 whole entry): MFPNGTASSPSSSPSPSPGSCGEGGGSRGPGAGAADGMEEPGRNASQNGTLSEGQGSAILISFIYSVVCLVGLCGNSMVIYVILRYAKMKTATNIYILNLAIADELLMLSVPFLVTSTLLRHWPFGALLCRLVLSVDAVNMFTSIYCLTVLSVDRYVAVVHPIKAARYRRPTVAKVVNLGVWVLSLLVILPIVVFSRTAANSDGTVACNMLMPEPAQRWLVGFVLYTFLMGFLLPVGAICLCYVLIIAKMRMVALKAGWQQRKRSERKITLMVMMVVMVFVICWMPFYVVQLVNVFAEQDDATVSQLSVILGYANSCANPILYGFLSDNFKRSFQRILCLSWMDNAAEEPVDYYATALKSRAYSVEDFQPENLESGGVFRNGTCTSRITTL
# Somatostatin receptor type 5, sequence (P35346 whole entry): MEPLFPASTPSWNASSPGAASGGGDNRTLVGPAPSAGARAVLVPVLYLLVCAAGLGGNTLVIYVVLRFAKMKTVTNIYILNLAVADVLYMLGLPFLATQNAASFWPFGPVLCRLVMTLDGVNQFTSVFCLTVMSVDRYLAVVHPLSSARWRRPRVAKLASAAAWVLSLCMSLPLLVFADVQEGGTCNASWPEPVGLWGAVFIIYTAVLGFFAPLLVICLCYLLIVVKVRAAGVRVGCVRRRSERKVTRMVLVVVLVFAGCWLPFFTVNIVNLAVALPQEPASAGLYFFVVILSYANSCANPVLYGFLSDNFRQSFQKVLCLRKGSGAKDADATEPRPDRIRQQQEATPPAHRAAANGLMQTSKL
# Somatostatin receptor type 3, sequence (P32745 whole entry): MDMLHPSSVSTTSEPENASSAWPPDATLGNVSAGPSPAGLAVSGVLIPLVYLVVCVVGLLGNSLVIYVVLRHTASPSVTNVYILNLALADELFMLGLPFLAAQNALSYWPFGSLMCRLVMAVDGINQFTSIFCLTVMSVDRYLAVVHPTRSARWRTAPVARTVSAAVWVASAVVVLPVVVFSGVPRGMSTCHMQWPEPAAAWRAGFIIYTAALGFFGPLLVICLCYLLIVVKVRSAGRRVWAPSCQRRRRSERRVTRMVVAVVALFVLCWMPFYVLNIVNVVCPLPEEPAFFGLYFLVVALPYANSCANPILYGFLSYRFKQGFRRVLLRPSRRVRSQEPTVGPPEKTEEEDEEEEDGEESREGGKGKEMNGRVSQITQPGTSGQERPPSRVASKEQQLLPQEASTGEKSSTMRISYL
structure (smiles),measurement,setting,value
Cc1cc(Cl)cc(-c2cnc3ncn(-c4cc(O)cc(F)c4)c(=O)c3c2CN(C)C[C@@H]2CCCN2)c1,EC50,[1],316 nM
same,EC50,[2],> 1000 nM
same,half-life,[3],23 min
same,IC50,Cytochrome P450 2C19,> 10000 nM
same,IC50,Cytochrome P450 3A4,> 10000 nM
same,AUC(0-inf),[4],329 ng·h/mL
same,Vd,[5],11.9 L/kg
same,bioavailability,[6],14%
same,clearance,[7],73 mL/min/kg
same,half-life,[8],35 min
same,IC50,[9],3160 nM
same,Activity,Rattus norvegicus,Dose-dependent effect
same,IC50,Cytochrome P450 2C9,> 10000 nM
same,EC50,[10],7.94 nM
same,half-life,[11],204 min
same,Cmax,[12],43 ng/mL
